Where “and” joins values, the source holds several entries; their conditions need not be identical. Equal values may be shown once.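 In this assay, cells in 96-well plates receive the compound at five concentrations for 48 hours. Endpoints are linearly interpolated between the surrounding concentrations. Here, GI50 denotes the concentration required for 50% inhibition of growth. TGI is the concentration that stops growth completely.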
Experiments:
Assay in all cases: DTP human tumour cell line panel, 48 h
RPMI-8226 leukemia = test system: RPMI-8226 leukemia
HS 578T breast = test system: HS 578T breast
A549 NSCLC = test system: A549 NSCLC
SK-MEL-28 melanoma = test system: SK-MEL-28 melanoma
NCI-H460 lung = test system: NCI-H460 lung
OVCAR-3 ovarian = test system: OVCAR-3 ovarian
HOP-92 NSCLC = test system: HOP-92 NSCLC
CAKI-1 renal = test system: CAKI-1 renal
DMS 114 small cell lung = test system: DMS 114 small cell lung

Structure (SMILES): Cc1ccc(-c2nc([P+](c3ccccc3)(c3ccccc3)c3ccccc3)c(N3CCOCC3)o2)cc1
- GI50 (RPMI-8226 leukemia): 0.251 µM
- TGI (RPMI-8226 leukemia): 1.16 µM
- GI50 (HS 578T breast): 0.578 µM
- TGI (HS 578T breast): 9.64 µM
- GI50 (A549 NSCLC): 0.5 µM
- TGI (A549 NSCLC): 14 µM
- GI50 (SK-MEL-28 melanoma): 0.515 µM
- TGI (SK-MEL-28 melanoma): 9.18 µM
- GI50 (NCI-H460 lung): 0.468 µM
- TGI (NCI-H460 lung): 10.8 µM
- GI50 (OVCAR-3 ovarian): 0.362 µM
- TGI (OVCAR-3 ovarian): 3.69 µM
- GI50 (HOP-92 NSCLC): 0.3 µM
- TGI (HOP-92 NSCLC): 2.44 µM
- GI50 (CAKI-1 renal): 5.58 µM
- TGI (CAKI-1 renal): 17.1 µM

Structure (SMILES): O=C1c2ccccc2N1C(=O)c1ccccc1[N+](=O)[O-]
- TGI (RPMI-8226 leukemia): > 100 µM
- TGI (HS 578T breast): > 100 µM
- TGI (A549 NSCLC): > 100 µM
- TGI (SK-MEL-28 melanoma): > 100 µM
- TGI (NCI-H460 lung): > 100 µM
- TGI (OVCAR-3 ovarian): 88.4 µM
- TGI (HOP-92 NSCLC): > 100 µM
- TGI (CAKI-1 renal): > 100 µM

Structure (SMILES): COc1ccc(-c2c(Nc3ccccn3)nc3c(C4=CCCCC4)c(-c4ccccc4)[nH]n3c2=O)cc1
- GI50 (RPMI-8226 leukemia): 1.43 µM
- TGI (RPMI-8226 leukemia): 5.66 µM
- GI50 (HS 578T breast): 3.32 µM
- TGI (HS 578T breast): 33.1 µM
- GI50 (A549 NSCLC): 1.94 µM
- TGI (A549 NSCLC): > 100 µM
- GI50 (SK-MEL-28 melanoma): 4.55 µM
- TGI (SK-MEL-28 melanoma): > 100 µM
- GI50 (NCI-H460 lung): 0.645 µM
- TGI (NCI-H460 lung): 14 µM
- GI50 (OVCAR-3 ovarian): 1.94 µM
- TGI (OVCAR-3 ovarian): > 100 µM
- GI50 (HOP-92 NSCLC): 1.45 µM
- TGI (HOP-92 NSCLC): 9.26 µM
- GI50 (CAKI-1 renal): 2.48 µM
- TGI (CAKI-1 renal): 15.1 µM

Structure (SMILES): O=S(=O)(O)C(c1ccccc1)C(O)c1ccccc1 (centres undefined)
- TGI (RPMI-8226 leukemia): > 100 µM
- TGI (HS 578T breast): > 100 µM
- TGI (A549 NSCLC): > 100 µM
- TGI (SK-MEL-28 melanoma): > 100 µM
- TGI (NCI-H460 lung): > 100 µM
- TGI (OVCAR-3 ovarian): > 100 µM
- TGI (HOP-92 NSCLC): > 100 µM
- TGI (CAKI-1 renal): > 100 µM

Structure (SMILES): CNS(=O)(=O)Nc1nccc(Cc2c(C)c3ccc(Oc4ncccn4)cc3oc2=O)c1F
- GI50 (RPMI-8226 leukemia): 12.3 µM and > 9.21 µM
- TGI (RPMI-8226 leukemia): > 100 µM
- GI50 (HS 578T breast): > 100 µM
- TGI (HS 578T breast): > 100 µM
- GI50 (A549 NSCLC): 0.674 µM and 1.08 µM
- TGI (A549 NSCLC): > 100 µM
- GI50 (SK-MEL-28 melanoma): 0.0234 µM and 0.00549 µM
- GI50 (NCI-H460 lung): > 62 µM
- TGI (NCI-H460 lung): > 100 µM
- GI50 (OVCAR-3 ovarian): 24.5 µM and > 10 µM
- TGI (OVCAR-3 ovarian): > 100 µM
- GI50 (HOP-92 NSCLC): < 0.0152 µM and 0.0613 µM
- TGI (HOP-92 NSCLC): 0.406 µM and 1.93 µM
- GI50 (CAKI-1 renal): 1.34 µM
- TGI (CAKI-1 renal): > 100 µM

Structure (SMILES): Nc1cc(C(F)(F)F)c(-c2nc(N3CCOCC3)nc(N3CCOCC3)n2)cn1
- GI50 (RPMI-8226 leukemia): 0.709 µM
- TGI (RPMI-8226 leukemia): > 75.9 µM
- GI50 (HS 578T breast): 0.231 µM
- TGI (HS 578T breast): 1.46 µM
- GI50 (A549 NSCLC): 0.416 µM
- TGI (A549 NSCLC): 8.62 µM
- GI50 (SK-MEL-28 melanoma): 0.248 µM
- TGI (SK-MEL-28 melanoma): 3.71 µM
- GI50 (NCI-H460 lung): 0.299 µM
- TGI (NCI-H460 lung): > 53.3 µM
- GI50 (OVCAR-3 ovarian): 0.313 µM
- TGI (OVCAR-3 ovarian): 11.2 µM
- GI50 (HOP-92 NSCLC): 0.139 µM
- TGI (HOP-92 NSCLC): 0.765 µM
- GI50 (CAKI-1 renal): 0.502 µM
- TGI (CAKI-1 renal): > 71.7 µM

Structure (SMILES): O=C1[C@H](Cc2ccc(O)cc2)N2C(=O)CCN(C(=O)NCc3ccccc3)[C@H]2CN1Cc1cccc2ccccc12
- GI50 (RPMI-8226 leukemia): 3.66 µM
- TGI (RPMI-8226 leukemia): 23.1 µM
- GI50 (HS 578T breast): 0.851 µM
- TGI (HS 578T breast): 7.24 µM
- GI50 (A549 NSCLC): 2.66 µM
- TGI (A549 NSCLC): > 50.6 µM
- GI50 (SK-MEL-28 melanoma): 0.79 µM
- TGI (SK-MEL-28 melanoma): 9.63 µM
- GI50 (NCI-H460 lung): 1.73 µM
- TGI (NCI-H460 lung): 7.23 µM
- GI50 (OVCAR-3 ovarian): 1.71 µM
- TGI (OVCAR-3 ovarian): 8.91 µM
- GI50 (HOP-92 NSCLC): 0.418 µM
- TGI (HOP-92 NSCLC): 2.4 µM
- GI50 (CAKI-1 renal): 14.2 µM
- TGI (CAKI-1 renal): > 80.1 µM

Structure (SMILES): CNS(=O)(=O)NNS(=O)(=O)c1ccc(C)cc1
- TGI (RPMI-8226 leukemia): > 100 µM
- TGI (A549 NSCLC): > 100 µM
- TGI (SK-MEL-28 melanoma): > 100 µM
- TGI (NCI-H460 lung): > 100 µM
- TGI (DMS 114 small cell lung): > 100 µM
- TGI (OVCAR-3 ovarian): > 100 µM
- TGI (HOP-92 NSCLC): > 100 µM
- TGI (CAKI-1 renal): > 100 µM

Structure (SMILES): COc1cc(NC(=O)COc2ccccc2)c(C(N)=O)cc1OC
- GI50 (RPMI-8226 leukemia): 2.27 µM
- TGI (RPMI-8226 leukemia): > 100 µM
- GI50 (HS 578T breast): 0.771 µM
- TGI (HS 578T breast): 26.9 µM
- GI50 (A549 NSCLC): 0.917 µM
- TGI (A549 NSCLC): > 100 µM
- GI50 (SK-MEL-28 melanoma): 24.2 µM
- TGI (SK-MEL-28 melanoma): > 100 µM
- GI50 (NCI-H460 lung): 0.529 µM
- TGI (NCI-H460 lung): > 100 µM
- GI50 (OVCAR-3 ovarian): 0.472 µM
- TGI (OVCAR-3 ovarian): 10.5 µM
- GI50 (HOP-92 NSCLC): 17.7 µM
- TGI (HOP-92 NSCLC): 52.5 µM
- GI50 (CAKI-1 renal): 3.8 µM
- TGI (CAKI-1 renal): > 100 µM

Source: PubChem BioAssay (NCI)
